Measurements as given in publication PMC11475408, “All‐Inorganic Polyoxometalates Act as Superchaotropic Membrane Carriers” (Advanced Materials (Deerfield Beach, Fla.), 2023).

How the values were obtained:
[1] = CF transport assay in EYPC⊃CF vesicles (carrier activity); type: biochemical; parameters: key to Carrier activity: ‐ – ‐: No detectable activity at pH 5.5 and 7.4
From the text: The capability of POMs to act as membrane carriers was explored first in large unilamellar vesicles (LUVs) loaded with carboxyfluorescein (CF).^[ [54], [55] ^] We selected […] representative cationic peptides, heptaarginine (heptaArg), heptalysine (heptaLys), protamine, and polyarginine (polyArg), as test cargos. Inside the LUVs, the CF dye was encapsulated at self‐quenching concentrations. With a suitable carrier, heptaArg can be taken up into the vesicles, bind with entrapped CF, and shuttle back to the exterior, diluting the previously quenched CF, and thereby restoring its fluorescence (Figure 1c). In the time‐resolved fluorescence experiments (Figure 2a), to test whether a particular POM acts as molecular carrier, the CF emission was continuously monitored during the addition of the inorganic carrier (t = 60 s) and after injection of the impermeable selected cargo (t = 120 s). Toward the end of the experiment (t = 600 s), the surfactant Triton X‐100 was added to release all the entrapped CF and allow normalization of the intensity data.
A thin lipid film was prepared by evaporating a lipid solution of EYPC (egg yolk phosphatidylcholine, 25 mg) in CHCl3 (1 mL) with a stream of nitrogen and then dried in vacuo overnight. The dry film was rehydrated with 1 mL buffer (50 mM CF, 10 mM Hepes, pH 7.4 or 50 mM CF, 10 mM Tris, pH 7.4) for 30 min at room temperature, subjected to freeze–thaw cycles (7 times) and extrusions (15 times) through a polycarbonate membrane (pore size 100 nm). Extravesicular components were removed by size exclusion chromatography (NAP‐25 column Sephadex G‐25 DNA grade) with 10 mM Hepes, 107 mM NaCl, pH 7.4, or 10 mM Hepes, 107 mM NaCl, pH 7.4. Phospholipid concentration was calculated by the Stewart assay.^[ [81] ^]
Acidic vesicles were prepared analogously but the rehydration and elution buffer were 50 mM CF, 10 mM Mes, pH 5.5 and 10 mM Mes, 107 mM NaCl, pH 5.5. respectively.
Vesicles stock solutions (5–10 µL) were diluted with the corresponding buffer in a disposable plastic cuvette and gently stirred (total volume 2000 µL, final lipid concentration 13 µM). Carboxyfluorescein fluorescence was monitored at λ em = 517 nm (λ ex = 492 nm) as a function of time after addition of POMs at 60 s, analyte at 120 s and Triton X‐100 (24 µL 1.2% wt/vol) at 600 s to lyse the vesicles, for calibration. Fluorescence intensities were normalized to fractional emission as (1) It=It−I0/I∞−I0 where I 0 = I t before POM addition and […] after lysis. For Hill analysis, I t before lysis was defined as transport activity, Y, and plotted against POM concentration, c, and fitted to the Hill Equation (2), to afford the activity in absence of POM, Y 0, the maximal activity, Y max, the concentration needed to achieve 50% of maximal activity, EC 50, and the Hill coefficient, n (2) Y=Y0+Ymax−Y0/1+EC50/c^n
In the transport measurements, where different carriers (POMs) are tested with the same cargo, the activator efficiency (E) is determined by their capacity to transport the impermeable cargo to the intravesicular region and is characterized by Y max, its maximal activity, and EC 50, the effective activator concentration. An ideal carrier reaches high Y max at low EC 50. To count both factors, the activator efficiency is defined as (3) E=YmaxpEC50/f were pEC 50 is the negative logarithm of the EC 50, and f a scaling factor, which was set to 20.6 to calibrate the highest (previously known) activation efficiency, E, as 10.^[ [55] ^]

[2] = Hydrolysis/stability of POMs in buffer by NMR
Experimental: First, their long‐term (24 h and longer) fate in aqueous solution (slightly acidic and neutral) was investigated by applying the active NMR nuclei in their composition (Table S9 and Figures S24–S37, see the Supporting Information for details).
NMR-spectroscopic characterization of identity and stability
NMR spectroscopy for all POMs tested was performed under experimental conditions.

[3] = tested on: protamine; assay: Supramolecular tandem assay of protamine hydrolysis (CX4/LCG); type: biochemical; settings: time scale of transport experiments (10 min); 0.5 µM protamine, LCG/CX4 reporter, 10 mM Hepes pH 7.5; POM 0-500 µM
Experimental: 5. Hydrolytic activity of [(PZrW11)2]8−
We devised a supramolecular tandem enzyme assay[25-29] to check to which degree [(PZrW11)2]8− promotes peptide fragmentation, which has been reported to occur on a time scale of days at 60 °C.[30-31] Supramolecular tandem assay is a technique that allows real-time continuous monitoring of enzymatic activity by following a change in the concentration of a substrate or product as it competitively displaces a fluorescent reporter dye from the cavity of a macrocyclic host.
The assay therefore relies on the differential binding of the macrocycle with the fluorescent dye, the enzymatic substrate, and the corresponding product.
We selected p-sulfonatocalix[4]arene (CX4) as macrocyclic host and lucigenin (LCG) as fluorescent dye, since protamine […]
conversion can be directly monitored through a decrease in fluorescence. Trypsin, which is an endopeptidase that hydrolyzes peptide bonds on the C -terminal side of the amino acid arginine ,[32-33] was used as an example, for comparison.
Only minor hydrolysis (<10%) of protamine by the [(PZrW11)2]8− was observed on the time scale relevant for the transport […]

[4] = 3 mM POM, 10 mM Hepes pH 7.5, 31P NMR integration

Substance: (Et2NH2)8[{α‐P^VW^VI 11O39Zr^IV(µ‐OH)(H2O)}2]·7H2O [[(PZrW11)2]^8‒]
- Carrier activity ([1]; EYPC vesicles, pH 5.5 and 7.4, cargos heptaArg, protamine, polyArg ([AlMo6]: heptaArg and protamine only)): ‐ – ‐ ^k)
- Transport activity (in words) ([1]; EYPC⊃CF vesicles, neutral pH, carrier then cargo): neither transport activity nor membrane disruption was observed
- % parent anion, Hepes pH 7.5 after 1 day [2, 4]: 99%
- % parent anion, Hepes pH 7.5 freshly prepared [2, 4]: 99%
- Hydrolysis/stability pH 7.5 ([2]; 10 mM Hepes or Tris, 107 mM NaCl, pH 7.4, NMR, long-term (24 h and longer)): Stable
- Stability at pH 7.5 by NMR (in words) ([2]; Hepes or Tris-HCl pH 7.5, 27Al, 31P or 183W NMR, fresh and aged 1-3 days): remain unchanged
- Hydrolysis of protamine by the POM [3]: < 10%
